In patent US8557847B2, “Synergistic modulation of FLT3 kinase using a FLT3 inhibitor and a farnesyl transferase inhibitor” (Janssen Pharmaceutica, N.V., priority 2005, dated 2013):
Where a name gives a salt, the structure may show the parent alone.

What was measured:
[1] = target: T1, isolated kinase domain of the human FLT3 receptor (a.a. 571-993) (Homo sapiens, UniProt P36888); test: FLT3 fluorescence polarization kinase assay; assay type: biochemical; details: 150 uM ATP; uncertainty ±10%; read-out: Flt-3 IC50
T1 construct: human FLT3 receptor (a.a. 571-993)
T1 sequence (P36888 571-993): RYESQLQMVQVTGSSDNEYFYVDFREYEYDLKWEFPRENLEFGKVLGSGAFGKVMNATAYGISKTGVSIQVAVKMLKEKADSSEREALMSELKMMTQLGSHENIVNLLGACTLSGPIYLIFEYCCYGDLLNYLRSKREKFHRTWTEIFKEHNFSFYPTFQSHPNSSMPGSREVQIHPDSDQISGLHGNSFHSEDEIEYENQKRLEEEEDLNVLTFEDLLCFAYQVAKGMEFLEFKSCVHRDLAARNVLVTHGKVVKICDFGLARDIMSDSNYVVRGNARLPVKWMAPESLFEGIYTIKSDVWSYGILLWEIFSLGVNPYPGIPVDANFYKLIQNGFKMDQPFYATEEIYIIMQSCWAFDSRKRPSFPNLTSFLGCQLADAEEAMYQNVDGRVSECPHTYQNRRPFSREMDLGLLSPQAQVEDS
Description: The FLT3 FP assay utilizes the fluorescein-labeled phosphopeptide and the anti-phosphotyrosine antibody included in the Panvera Phospho-Tyrosine Kinase Kit (Green) supplied by Invitrogen. When FLT3 phosphorylates polyGlu4Tyr, the fluorescein-labeled phosphopeptide is displaced from the anti-phosphotyrosine antibody by the phosphorylated poly Glu4Tyr, thus decreasing the FP value. […] The kinase reaction is stopped with the addition of EDTA. The fluorescein-labeled phosphopeptide and the anti-phosphotyrosine antibody are added and incubated for 30 minutes at room temperature.
Data points are an average of triplicate samples. Inhibition and IC50 data analysis was done with GraphPad Prism using a non-linear regression fit with a multiparamater, sigmoidal dose-response (variable slope) equation.

[2] = target: T2, wild-type FLT3 phosphorylation in Baf3 FLT3 cells (Homo sapiens, UniProt P36888); test: Cell-based FLT3 receptor ELISA; details: uncertainty ±20%
T2 construct: host or cells: Baf3 (murine B cell lymphoma line)
T2 sequence (P36888 27-993): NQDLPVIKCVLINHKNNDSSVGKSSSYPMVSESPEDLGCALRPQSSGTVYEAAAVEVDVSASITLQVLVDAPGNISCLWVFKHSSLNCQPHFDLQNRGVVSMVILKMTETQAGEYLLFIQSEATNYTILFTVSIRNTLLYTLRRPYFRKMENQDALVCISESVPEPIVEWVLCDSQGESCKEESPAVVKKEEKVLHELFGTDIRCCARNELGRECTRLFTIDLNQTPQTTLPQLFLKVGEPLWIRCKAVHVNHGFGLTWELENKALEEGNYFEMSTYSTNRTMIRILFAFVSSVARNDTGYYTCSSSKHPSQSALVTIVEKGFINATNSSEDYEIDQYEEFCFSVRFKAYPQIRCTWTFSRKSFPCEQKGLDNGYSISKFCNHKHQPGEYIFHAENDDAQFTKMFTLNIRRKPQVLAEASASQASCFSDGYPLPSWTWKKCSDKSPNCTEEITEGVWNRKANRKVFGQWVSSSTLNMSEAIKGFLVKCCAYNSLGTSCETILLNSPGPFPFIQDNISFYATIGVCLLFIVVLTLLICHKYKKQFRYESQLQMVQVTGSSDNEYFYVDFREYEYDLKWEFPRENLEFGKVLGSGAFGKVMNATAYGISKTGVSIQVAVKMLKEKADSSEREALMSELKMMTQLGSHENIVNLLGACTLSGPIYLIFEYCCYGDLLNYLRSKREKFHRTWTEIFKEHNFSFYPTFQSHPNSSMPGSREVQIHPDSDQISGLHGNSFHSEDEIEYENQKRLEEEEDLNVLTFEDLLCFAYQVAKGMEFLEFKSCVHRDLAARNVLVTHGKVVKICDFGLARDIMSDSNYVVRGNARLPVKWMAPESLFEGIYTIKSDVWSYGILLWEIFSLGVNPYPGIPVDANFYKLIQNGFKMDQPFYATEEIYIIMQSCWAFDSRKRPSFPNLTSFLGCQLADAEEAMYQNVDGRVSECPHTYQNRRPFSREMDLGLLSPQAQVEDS
Description: Data points are an average of triplicate samples. […] Leukemia.

MV4-11 cells = test: Inhibition of MV4-11 cell proliferation (CellTiterGlo); assay type: cell-based; details: Homo sapiens, 72 hours growth, uncertainty ±20%
Protocol: To assess the cellular potency of compounds of the present invention, FLT3 specific growth inhibition was measured in the leukemic cell line MV4-11 (ATCC Number: CRL-9591). […] MV4-11 cells cannot grow and survive without active FLT3ITD.
To measure proliferation inhibition by compounds of the present invention, the luciferase based CellTiterGlo reagent (Promega), which quantifies total cell number based on total cellular ATP concentration, was used. Cells are plated at 10,000 cells per well in 100 ul of in RPMI media containing penn/strep, 10% FBS and 1 ng/ml GM-CSF or 1 ng/ml IL-3 for MV4-11 and Baf3 cells respectively.
Compound dilutions or 0.1% DMSO (vehicle control) are added to cells and the cells are allowed to grow for 72 hours at standard cell growth conditions (37° C., 5% CO2). For activity measurements in MV4-11 cells grown in 50% plasma, cells were plated at 10,000 cells per well in a 1:1 mixture of growth media and human plasma (final volume of 100 μL). To measure total cell growth an equal volume of CellTiterGlo reagent was added to each well, according to the manufacturer's instructions, and luminescence was quantified. Total cell growth was quantified as the difference in luminescent counts (relative light units, RLU) of cell number at Day 0 compared to total cell number at Day 3 (72 hours of growth and/or compound treatment). One hundred percent inhibition of growth is defined as an RLU equivalent to the Day 0 reading. Zero percent inhibition was defined as the RLU signal for the DMSO vehicle control at Day 3 of growth.
Data points are an average of triplicate samples. […] Inhibition and IC50 data analysis was done with GraphPad Prism using a non-linear regression fit with a multiparamater, sigmoidal dose-response (variable slope) equation. MV4-11 cells express the FLT3 internal tandem duplication mutation, and thus are entirely dependent upon FLT3 activity for growth. […] In contrast, the Baf3 cell proliferation is driven by the cytokine IL-3 and thus is used as a non-specific toxicity control.

IC50 [1] [nM]	IC50 [2] [nM]	SMILES	IC50 (MV4-11 cells) [nM]
82		N#Cc1c[nH]c(C(=O)Nc2ccc(C3CCN(C(CO)CO)CC3)cc2C2=CCCCC2)n1 [Compound 6, 4-Cyano-1H-imidazole-2-carboxylic acid {2-cyclohex-1-enyl-4-[1-(2-hydroxy-1-hydroxymethyl-ethyl)-piperidin-4-yl]-phenyl}-amide trifluoroacetic acid salt]	
97		Cc1ccccc1-c1cc(N2CCN(C)CC2)ccc1NC(=O)c1ccc(C#N)o1 [Compound 9, 5-Cyano-furan-2-carboxylic acid [2′-methyl-5-(4-methyl-piperazin-1-yl)-biphenyl-2-yl]-amide]	
260	1300	CN1CCN(c2ccc(NC(=O)c3ccc(C#N)o3)c(C3=CCCCC3)c2)CC1 [Compound 11, 5-Cyano-furan-2-carboxylic acid [2-cyclohex-1-enyl-4-(4-methyl-piperazin-1-yl)-phenyl]-amide]	
1240		CN1CCN(c2ccc(NC(=O)c3ccc(C#N)o3)c(C3=CCOCC3)c2)CC1 [Compound 12]	
34		N#Cc1c[nH]c(C(=O)Nc2ccc(C3CCNCC3)cc2C2=CCCCC2)c1 [Compound 13, 4-Cyano-1H-pyrrole-2-carboxylic acid (2-cyclohex-1-enyl-4-piperidin-4-yl-phenyl)-amide trifluoroacetic acid salt]	
39		CC(=O)N1CCC(c2ccc(NC(=O)c3nc(C#N)c[nH]3)c(C3=CCCCC3)c2)CC1 [Compound 16, 4-Cyano-1H-imidazole-2-carboxylic acid [4-(1-acetyl-piperidin-4-yl)-2-cyclohex-1-enyl-phenyl]-amide]	
13		CC1CC=C(c2cc(C3CCNCC3)ccc2NC(=O)c2nc(C#N)c[nH]2)CC1 (centres unmarked) [Compound 17, 4-Cyano-1H-imidazole-2-carboxylic acid [2-(4-methyl-cyclohex-1-enyl)-4-piperidin-4-yl-phenyl]-amide trifluoroacetic acid salt]	
130		CS(=O)(=O)CC(=O)N1CCC(c2ccc(NC(=O)c3nc(C#N)c[nH]3)c(C3=CCCCC3)c2)CC1 [Compound 20, 4-Cyano-1H-imidazole-2-carboxylic acid {2-cyclohex-1-enyl-4-[1-(2-methanesulfonyl-acetyl)-piperidin-4-yl]-phenyl}-amide]	
16		Cn1ccnc1CN1CCC(c2ccc(NC(=O)c3nc(C#N)c[nH]3)c(C3=CCCC3)c2)CC1 [Compound 23, 4-Cyano-1H-imidazole-2-carboxylic acid {2-cyclopent-1-enyl-4-[1-(1-methyl-1H-imidazol-2-ylmethyl)-piperidin-4-yl]-phenyl}-amide trifluoroacetic acid salt]	
370		N#Cc1c[nH]c(C(=O)Nc2ccc(C3CCN(C(N)=O)CC3)cc2C2=CCCCC2)n1 [Compound 24, 4-{4-[(4-Cyano-1H-imidazole-2-carbonyl)-amino]-3-cyclohex-1-enyl-phenyl}-piperidine-1-carboxylic acid amide]	
53		N#Cc1c[nH]c(C(=O)Nc2ccc(C3CCN(CCO)CC3)cc2C2=CCCCC2)n1 [Compound 26, 4-Cyano-1H-imidazole-2-carboxylic acid {2-cyclohex-1-enyl-4-[1-(2-hydroxy-ethyl)-piperidin-4-yl]-phenyl}-amide trifluoroacetic acid salt]	
		N#Cc1c[nH]c(C(=O)Nc2ccc(C3CCN(CCN4CCOCC4)CC3)cc2C2=CCCCC2)n1 [Compound 34, 4-Cyano-1H-imidazole-2-carboxylic acid {2-cyclohex-1-enyl-4-[1-(2-morpholin-4-yl-ethyl)-piperidin-4-yl]-phenyl}-amide di-trifluoroacetic acid salt]	8
120		N#Cc1c[nH]c(C(=O)Nc2ccc(C3CCS(=O)(=O)CC3)cc2C2=CCCCC2)n1 [Compound 35, 4-Cyano-1H-imidazole-2-carboxylic acid [2-cyclohex-1-enyl-4-(1,1-dioxo-hexahydro-1λ^6-thiopyran-4-yl)-phenyl]-amide]	
		CS(=O)(=O)CCN1CCC(c2ccc(NC(=O)c3nc(C#N)c[nH]3)c(C3=CCCCC3)c2)CC1 [Compound 40, 4-Cyano-1H-imidazole-2-carboxylic acid {2-cyclohex-1-enyl-4-[1-(2-methanesulfonyl-ethyl)-piperidin-4-yl]-phenyl}-amide]	116
39		CC(=O)N1CCC(c2ccc(NC(=O)c3nc(C#N)c[nH]3)c(C3=CCCNC3)c2)CC1 [Compound 46, 4-Cyano-1H-imidazole-2-carboxylic acid [4-(1-acetyl-piperidin-4-yl)-2-(1,2,5,6-tetrahydro-pyridin-3-yl)-phenyl]-amide trifluoroacetic acid salt]	
2.3		C[C@@H]1CC(c2ccc(NC(=O)c3ncc(C#N)[nH]3)c(C3=CCCCC3)c2)C[C@H](C)N1 (stereo partly drawn) [Compound 51a, 5-Cyano-1H-imidazole-2-carboxylic acid [2-cyclohex-1-enyl-4-(cis-2,6-dimethyl-piperidin-4-yl)-phenyl]-amide bis trifluoroacetic acid salt]	
140		CC1(C)CC=C(c2nc(C3CCN(CCS(C)(=O)=O)CC3)ccc2NC(=O)c2nc(C#N)c[nH]2)CC1 [Compound 56, 4-Cyano-1H-imidazole-2-carboxylic acid [6-(4,4-dimethyl-cyclohex-1-enyl)-1′-(2-methanesulfonyl-ethyl)-1′,2′,3′,4′,5′,6′-hexhydro-[2,4]bipyridinyl-5-yl]-amide trifluoroacetic acid salt]	

SMILES	IC50 [1] [nM]	IC50 [2] [nM]	IC50 (MV4-11 cells) [nM]
N#Cc1c[nH]c(C(=O)Nc2ccc(C3CCNCC3)cc2C2=CCS(=O)(=O)CC2)n1 [Compound 36, 4-Cyano-1H-imidazole-2-carboxylic acid [2-(1,1-dioxo-1,2,3,6-tetrahydro-1λ6-thiopyran-4-yl)-4-piperidin-4-yl-phenyl]-amide trifluoroacetic acid salt]	9100		192
